Test results published in US8664216B2, “Spiro-5,6-dihydro-4H-2,3,5,10b-tetraaza-benzo[e]azulenes” (Hoffmann-La Roche Inc., priority 2008, dated 2014).
Structures can show the parent of a compound that is named as a salt. Where two headings read alike, the source gives them in different places.

Molecular target: T1, human V1a receptor (Homo sapiens, UniProt P37288)
T1 construct: expressed in transfected cells; host or cells: HEK293 cells, transiently transfected; membranes prepared
Test: human V1a receptor binding studies (3H-Vasopressin SPA, membranes of transfected HEK293 cells)
Procedure: The human V1a receptor was cloned by RT-PCR from total human liver RNA. The coding sequence was subcloned in an expression vector after sequencing to confirm the identity of the amplified sequence. […] Cell membranes were prepared from HEK293 cells transiently transfected with the expression vector and grown in 20 liter fermenters with the following protocol.
50 g of cells are resuspended in 30 ml freshly prepared ice cold Lysis buffer (50 mM HEPES, 1 mM EDTA, 10 mM MgCl2 adjusted to pH=7.4+complete cocktail of protease inhibitor (Roche Diagnostics)). Homogenized with Polytron for 1 min and sonicated on ice for 2×2 minutes at 80% intensity (Vibracell sonicator). The preparation is centrifuged 20 min at 500 g at 4° C., the pellet is discarded and the supernatant centrifuged 1 hour at 43,000 g at 4° C. (19,000 rpm). The pellet is resuspended in 12.5 ml Lysis buffer+12.5 ml Sucrose 20% and homogenized using a Polytron for 1-2 min. The protein concentration is determined by the Bradford method and aliquots are stored at −80° C. until use. For binding studies 60 mg Yttrium silicate SPA beads (Amersham) are mixed with an aliquot of membrane in binding buffer (50 mM Tris, 120 mM NaCl, 5 mM KCl, 2 mM CaCl2, 10 mM MgCl2) for 15 minutes with mixing. 50 μl of bead/membrane mixture is then added to each well of a 96 well plate, followed by 50 μl of 4 nM 3H-Vasopressin (American Radiolabeled Chemicals). For total binding measurement 100 μl of binding buffer are added to the respective wells, for non-specific binding 100 μl of […] cold vasopressin and for compound testing 100 μl of a serial dilution of each compound in 2% DMSO. The plate is incubated 1 h at room temperature, centrifuged 1 min at 1000 g and counted on a Packard Top-Count. Non-specific binding counts are subtracted from each well and data is normalized to the maximum specific binding set at 100%. To calculate an IC 50 the curve is fitted using a non-linear regression model (XLfit) and the Ki is calculated using the Cheng-Prussoff equation.

[1] = 3H-Vasopressin displacement, HEK293 cell membranes, Ki calculated from IC50 by Cheng-Prussoff equation, read-out: pKi hV1a (converted)

T1 sequence (P37288 whole entry): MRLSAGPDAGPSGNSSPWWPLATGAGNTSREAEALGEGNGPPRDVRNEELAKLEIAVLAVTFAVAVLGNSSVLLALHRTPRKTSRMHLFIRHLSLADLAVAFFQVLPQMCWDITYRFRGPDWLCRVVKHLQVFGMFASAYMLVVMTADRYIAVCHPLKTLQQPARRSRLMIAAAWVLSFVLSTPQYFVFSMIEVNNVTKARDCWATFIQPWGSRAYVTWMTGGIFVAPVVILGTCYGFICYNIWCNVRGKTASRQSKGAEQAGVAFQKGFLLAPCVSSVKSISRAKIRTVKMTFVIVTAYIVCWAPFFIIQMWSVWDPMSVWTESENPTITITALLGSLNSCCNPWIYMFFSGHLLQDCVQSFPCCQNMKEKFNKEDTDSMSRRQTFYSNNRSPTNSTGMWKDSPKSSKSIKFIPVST

Question: With `Clc1ccc2c(c1)CN(Cc1ccccn1)Cc1nnc(N3CCC4(CC3)OCc3ccccc34)n1-2` [Example 12, 8-Chloro-5-(pyridin-2-ylmethyl)-1-(1′H,3H-spiro[2-benzofuran-1,4′-piperidin]-1′-yl)-5,6-dihydro-4H-[1,2,4]triazolo[4,3-a][1,4]benzodiazepine] as the molecule, how does the Ki read?
Answer: 1.82 nM

Question: For `CN1Cc2cc(Cl)ccc2-n2c(nnc2N2CCC3(CC2)OCc2ccccc23)C1` [Example 9, 8-Chloro-5-methyl-1-(1′H,3H-spiro[2-benzofuran-1,4′-piperidin]-1′-yl)-5,6-dihydro-4H-[1,2,4]triazolo[4,3-a][1,4]benzodiazepine], which Ki is on record?
Answer: 2.4 nM

Question: With `CN1Cc2cc(Cl)ccc2-n2c(nnc2N2CCC3(CC2)OCc2cc(F)ccc23)C1` [Example 23, 8-Chloro-1-(5-fluoro-1′H,3H-spiro[2-benzofuran-1,4′-piperidin]-1′-yl)-5-methyl-5,6-dihydro-4H-[1,2,4]triazolo[4,3-a][1,4]benzodiazepine] as the molecule, how does the Ki [1] read?
Answer: 2.09 nM

Question: With `CN(C)CC(=O)N1Cc2cc(Cl)ccc2-n2c(nnc2N2CCC3(CC2)OCc2ccccc23)C1` [Example 16, 2-[8-Chloro-1-(1′H,3H-spiro[2-benzofuran-1,4′-piperidin]-1′-yl)-4H-[1,2,4]triazolo[4,3-a][1,4]benzodiazepin-5(6H)-yl]-N,N-dimethyl-2-oxoethanamine] as the molecule, how does the Ki [1] read?
Answer: 6.76 nM

Question: `CC1OC2(CCN(c3nnc4n3-c3ccc(Cl)cc3CN(C)C4)CC2)c2ccccc21` (racemic) [Example 26, (RS)-8-Chloro-5-methyl-1-(3-methyl-1′H,3H-spiro[2-benzofuran-1,4′-piperidin]-1′-yl)-5,6-dihydro-4H-[1,2,4]triazolo[4,3-a][1,4]benzodiazepine] was tested. Which Ki [1] did it give?
Answer: 4.79 nM

Question: How did the Ki turn out when `CN1Cc2cc(Cl)ccc2-n2c(nnc2N2CCC3(CC2)OC(=O)c2ccccc23)C1` [Example 27, 1′-(8-Chloro-5-methyl-5,6-dihydro-4H-[1,2,4]triazolo[4,3-a][1,4]benzodiazepin-1-yl)-3H-spiro[2-benzofuran-1,4′-piperidin]-3-one] was run?
Answer: 12.3 nM

Question: For `CN1Cc2cc(Cl)ccc2-n2c(nnc2N2CCC3(CC2)OCCc2ccccc23)C1` [Example 35, 1′-(8-Chloro-5-methyl-5,6-dihydro-4H-[1,2,4]triazolo[4,3-a][1,4]benzodiazepin-1-yl)-3,4-dihydrospiro[isochromene-1,4′-piperidine]], which Ki is on record?
Answer: 10.5 nM

Question: For `CC(C)N1Cc2cc(Cl)ccc2-n2c(nnc2N2CCC3(CC2)OCc2ccccc23)C1` [Example 10, 8-Chloro-5-isopropyl-1-(1′H,3H-spiro[2-benzofuran-1,4′-piperidin]-1′-yl)-5,6-dihydro-4H-[1,2,4]triazolo[4,3-a][1,4]benzodiazepine], which Ki [1] is on record?
Answer: 1.82 nM

Question: Which Ki [1] does the source give for `CC(C)(C)OC(=O)N1Cc2cc(Cl)ccc2-n2c(nnc2N2CCC3(CC2)OCc2ccc(F)cc23)C1` [Example 17, tert-Butyl 8-chloro-1-(6-fluoro-1′H,3H-spiro[2-benzofuran-1,4′-piperidin]-1′-yl)-4H-[1,2,4]triazolo[4,3-a][1,4]benzodiazepine-5(6H)-carboxylate] here?
Answer: 10.2 nM

Question: Which Ki [1] does the source give for `CC(=O)N1Cc2cc(Cl)ccc2-n2c(nnc2N2CCC3(CC2)OCc2ccccc23)C1` [Example 15] here?
Answer: 4.17 nM

Question: Which Ki [1] does the source give for `CN1Cc2cc(Cl)ccc2-n2c(nnc2N2CCC[C@@]3(CC2)OCc2ccccc23)C1` [Example 36, (+)-1-(8-Chloro-5-methyl-5,6-dihydro-4H-[1,2,4]triazolo[4,3-a][1,4]benzodiazepin-1-yl)-3′H-spiro[azepane-4,1′-[2]benzofuran]] here?
Answer: 1.45 nM

Question: For `CN1Cc2cc(Cl)ccc2-n2c(nnc2N2CCC3(CC2)OCc2cccc(F)c23)C1` [Example 22, 8-Chloro-1-(7-fluoro-1′H,3H-spiro[2-benzofuran-1,4′-piperidin]-1′-yl)-5-methyl-5,6-dihydro-4H-[1,2,4]triazolo[4,3-a][1,4]benzodiazepine], which Ki [1] is on record?
Answer: 3.98 nM

Question: How did the Ki turn out when `Clc1ccc2c(c1)CNCc1nnc([C@H]3CC[C@@]4(CC3)OCc3ccccc34)n1-2` [Example 2, 8-Chloro-1-[(1r,4′r)-3H-spiro[2-benzofuran-1,1′-cyclohexan]-4′-yl]-5,6-dihydro-4H-[1,2,4]triazolo[4,3-a][1,4]benzodiazepine hydrochloride] was run?
Answer: 39.8 nM

Question: Which Ki does the source give for `CN1Cc2cc(Cl)ccc2-n2c(nnc2N2CCC3(CC2)COCc2ccccc23)C1` [Example 32, 1′-(8-Chloro-5-methyl-5,6-dihydro-4H-[1,2,4]triazolo[4,3-a][1,4]benzodiazepin-1-yl)-1H-spiro[isochromene-4,4′-piperidine]] here?
Answer: 2.19 nM

Question: How did the Ki turn out when `CC(C)(C)OC(=O)N1Cc2cc(Cl)ccc2-n2c(nnc2[C@H]2CC[C@@]3(CC2)OCc2ccccc23)C1` [Example 1, tert-Butyl 8-chloro-1-[(1r,4′r)-3H-spiro[2-benzofuran-1,1′-cyclohexan]-4′-yl]-4H-[1,2,4]triazolo[4,3-a][1,4]benzodiazepine-5(6H)-carboxylate] was run?
Answer: 4.57 nM

Question: `CC(C)(C)OC(=O)N1Cc2cc(Cl)ccc2-n2c(nnc2N2CCC3(CC2)OCc2ccccc23)C1` [Example 7, tert-Butyl 8-chloro-1-(1′H,3H-spiro[2-benzofuran-1,4′-piperidin]-1′-yl)-4H-[1,2,4]triazolo[4,3-a][1,4]benzodiazepine-5(6H)-carboxylate] was tested. Which Ki [1] did it give?
Answer: 4.47 nM

Question: Which Ki does the source give for `CN1Cc2cc(Cl)ccc2-n2c(nnc2[C@H]2CC[C@@]3(CC2)OCc2ccccc23)C1` [Example 3, 8-Chloro-5-methyl-1-[(1r,4′r)-3H-spiro[2-benzofuran-1,1′-cyclohexan]-4′-yl]-5,6-dihydro-4H-[1,2,4]triazolo[4,3-a][1,4]benzodiazepine] here?
Answer: 2.82 nM

Question: Which Ki [1] does the source give for `CC1OC2(CCN(c3nnc4n3-c3ccc(Cl)cc3CN(C(=O)OC(C)(C)C)C4)CC2)c2ccccc21` (racemic) [Example 24, (RS)-tert-Butyl 8-chloro-1-(3-methyl-1′H,3H-spiro[2-benzofuran-1,4′-piperidin]-1′-yl)-4H-[1,2,4]triazolo[4,3-a][1,4]benzodiazepine-5(6H)-carboxylate] here?
Answer: 10.7 nM

Question: Which Ki [1] does the source give for `CN1Cc2cc(Cl)ccc2-n2c(nnc2N2CCC[C@]3(CC2)OCc2ccccc23)C1` [Example 37, (−)-1-(8-Chloro-5-methyl-5,6-dihydro-4H-[1,2,4]triazolo[4,3-a][1,4]benzodiazepin-1-yl)-3′H-spiro[azepane-4,1′-[2]benzofuran]] here?
Answer: 5.01 nM

Question: `CN1Cc2cc(Cl)ccc2-n2c(nnc2N2CCC3(CC2)OCc2ccc(F)cc23)C1` [Example 19, 8-Chloro-1-(6-fluoro-1′H,3H-spiro[2-benzofuran-1,4′-piperidin]-1′-yl)-5-methyl-5,6-dihydro-4H-[1,2,4]triazolo[4,3-a][1,4]benzodiazepine] was tested. Which Ki [1] did it give?
Answer: 7.59 nM

Question: How did the Ki turn out when `CN1Cc2cc(Cl)ccc2-n2c(nnc2N2CCC3(CC2)SCc2ccccc23)C1` [Example 29] was run?
Answer: 1.74 nM

Question: How did the Ki turn out when `CN1Cc2cc(Cl)ccc2-n2c(nnc2N2CCC3(CC2)c2ccccc2CS3(=O)=O)C1` [Example 31, 8-Chloro-1-(2,2-dioxido-1′H,3H-spiro[2-benzothiophene-1,4′-piperidin]-1′-yl)-5-methyl-5,6-dihydro-4H-[1,2,4]triazolo[4,3-a][1,4]benzodiazepine] was run?
Answer: 47.9 nM

Question: Which Ki does the source give for `Clc1ccc2c(c1)CNCc1nnc([C@H]3CC[C@]4(CC3)OCc3ccccc34)n1-2` [Example 5, 8-Chloro-1-[(1s,4′s)-3H-spiro[2-benzofuran-1,1′-cyclohexan]-4′-yl]-5,6-dihydro-4H-[1,2,4]triazolo[4,3-a][1,4]benzodiazepine hydrochloride] here?
Answer: 16.2 nM
